Patent US6337184B1, “Molecular marker for muscle stem cells” (priority 1997, dated 2002)
Entries after “also recorded” stand apart in the source; their conditions may differ.

Legend:
Format in all cases: cell-based, mouse
[1] = test system: C2C12 cells; assay: G-418 selection of untransfected and neo-transfected C2C12 cells; conditions: 500 μg/ml G-418, 11 days
Protocol: The Bcl-2 promoter-neo vector was prepared by using HindIII and MluI to excise the RSV promoter of pRSVneo (Gorman et al., Science 221:551-553 (1983)), after which an ˜2.6 kb PstI fragment of the human Bcl-2 promoter region (plasmid LB124; Chen et al., Mol. Cell. Biol. 15, 3840-3847 (1995)) was blunt-end ligated to the promotorless neo plasmid. C2C12 cells were transfected with Bcl-2-neo or pSV2neo using LIPOFECTAMINE™ (3:1 (w/w) 2,3-dioleyloxy-N-[2(spermine-carboxamido)ethyl]-N,N-dimethyl-1-propanaminiumtrifluoroacetate and dioleoyl phosphatidylethanolamine) (Gibco-BRL) and selected with G-418 (Dominov et al., Dev. Genet. 19, 108-118 (1996)).
To determine whether Bcl-2-expressing cells could function as stem cells, the differentiation of modified C2C12 cells that were selected based on their ability to express a Bcl-2 promoter fragment was examined. C2C12 cells were transfected with a plasmid in which expression of neomycin phosphotransferase was under the control of an ˜2.6 kb fragment of the human Bcl-2 promoter (Chen and Boxer, Mol. Cell. Biol. 15, 3840-3847 (1995)). From these transfections, four independent G-418-resistant lines (termed Bcl-2-neo cells) were isolated. […] In contrast, this treatment killed all untransfected C2C12 control cells and had no effect on C2C12 cells transfected with the ubiquitously expressed pSV2neo (FIG. 4). When transferred to fresh growth medium without G-418, the selected Bcl-2-neo cells resumed proliferation (FIG. 4) and were able to form multinucleate myotubes when switched to differentiation medium at confluence (not shown).

[2] = test system: C2C12 cells; assay: MTT assay of mitochondrial function (cell viability) after apoptosis induction; conditions: serum-free medium with 0.5 μM staurosporine, compared to growth medium or 2% HS; 1-2 days
Protocol: C2C12 and Sol8 cells were maintained in growth medium (DMEM with 15% fetal bovine serum, 2 mM L-glutamine, 10 mM HEPES, pH 7.4, and 100 U/ml penicillin) and induced to form myotubes in differentiation medium (growth medium with 2% horse serum in place of fetal bovine serum) (Yaffe et al., Nature 270, 725-727 (1977); Blau et al., Science 230, 758-766 (1985); and Montarras et al., New Biologist 3, 592-600 (1991)). […] Apoptosis was induced by transferring the cells to serum-free differentiation medium, with or without 0.5 μM staurosporine, and cell viability was measured by the MTT assay of mitochondrial function (Jacobsen et al., EMBO J. 13, 1899-1910 (1994)).
In this experiment, apoptosis was induced and Bcl-2 expression, cell viability, and differentiation capability were examined in cultures of myogenic cells.

[3] = test system: C2C12 cells; assay: Percentage of Bcl-2-expressing cells after apoptosis induction (immunostaining); conditions: serum-free medium with staurosporine; increased from less than 20%
Protocol: Apoptosis was induced by transferring the cells to serum-free differentiation medium, with or without 0.5 μM staurosporine, and cell viability was measured by the MTT assay of mitochondrial function (Jacobsen et al., EMBO J. 13, 1899-1910 (1994)).
The hamster mAb, 3 F11, is specific for mouse Bcl-2 (Krajewski et al., Cancer Res. 53, 4701-4714 (1993)) and was used at 25 μg/ml.

Row | SMILES | effect on C2C12 cells carrying neo under SV40 promoter (pSV2neo) [1] | survival of C2C12 cells carrying Bcl-2 promoter-neo fusion gene (Bcl-2-neo) [1] | survival of untransfected C2C12 cells (control) [1] | number of viable C2C12 cells [2] | percentage of muscle stem cells in the population [3]
1 | CN[C@@H]1[C@@H](O)[C@@H](O[C@@H]2[C@@H](O)[C@H](O[C@H]3O[C@H]([C@@H](C)O)[C@@H](O)[C@H](O)[C@H]3N)[C@@H](N)C[C@H]2N)OC[C@]1(C)O [G-418] | no effect | a portion of C2C12 cells that carry a Bcl-2 promoter-neo fusion gene (Bcl-2-neo) survived; also recorded: a portion of the cells remained viable | killed all | – | –
2 | CN[C@@H]1C[C@H]2O[C@@](C)([C@@H]1OC)n1c3ccccc3c3c4c(c5c6ccccc6n2c5c31)C(=O)NC4 [staurosporine] | – | – | – | greatly reduced; also recorded: decreased | 50-80%
